How the values were obtained:
[1] = system: B cell receptor; experiment: whole blood anti-IgD stimulated CD69 on CD19+ B cells; assay type: cell-based; conditions: whole blood from four healthy donors, 2 hours compound, anti-human IgD 18 hours
Experimental: Blood from four healthy donors was incubated for 2 hours with the compounds shown over a concentration range, and then stimulated with anti-human IgD [10 μg/mL] for 18 hours. The mean fluorescent intensity (MFI) of CD69 (and CD86, data not shown) on gated CD19+ B cells was measured by flow cytometry.

[2] = system: expression of activation markers CD69 and CD86; experiment: in vivo potency: mice gavaged, BCR stimulated with IgM, CD69 and CD86 monitored by flow cytometry; conditions: gavage, 3 h post-dose, versus ibrutinib, FIG. 124
Experimental: Mice were gavaged at increasing drug concentration and sacrificed at one time point (3 h post-dose). BCR is stimulated with IgM and the expression of activation markers CD69 and CD86 are monitored by flow cytometry to determine EC50's.

[3] = system: CLL; experiment: clinical study in CLL (ALC and SPD); assay type: in vivo, human; conditions: CLL patients, FIG. 125
From the text: J. Med. 2013, 369, 32-42.

[4] = system: CLL; experiment: apoptosis in treated CLL patients; assay type: in vivo, human; conditions: FIG. 144
[5] = system: CXCL12; experiment: CXCL12 levels in treated patients; assay type: in vivo, human; conditions: FIG. 145
[6] = system: CCL2; experiment: CCL2 levels in treated patients; assay type: in vivo, human; conditions: FIG. 146
[7] = system: human platelet-mediated thrombosis; experiment: in vivo human thrombus formation in the VWF HA1 mice model; conditions: human platelets preincubated with BTK inhibitor, laser-induced injury
[8] = system: human platelets; experiment: GPVI (convulxin-induced) platelet aggregation; assay type: cell-based; conditions: CVX-induced
Experimental: GPVI platelet aggregation was measured for Formula (XVIII) and Formula (XX-A) (ibrutinib). Blood was obtained from untreated humans, and platelets were purified from […] by centrifugation. Cells were resuspended to a final concentration of 350,000/μL in buffer containing 145 mmol/L NaCl, 10 mmol/L HEPES, 0.5 mmol/L Na2HPO4, 5 mmol/L KCl, 2 mmol/L MgCl2, 1 mmol/L CaCl2), and 0.1% glucose, at pH 7.4. Stock solutions of […] were prepared on the day of experimentation and added to platelet suspensions 5 minutes (37° C., 1200 rpm) before the induction of aggregation. Aggregation was assessed with a Chronolog Lumi-Aggregometer (model 540 VS; Chronolog, Havertown, Pa.) and permitted to proceed for 6 minutes after the addition of agonist. The results are reported as maximum percent change in light transmittance from baseline with platelet buffer used as a reference.
In FIG. 123, the results of CVX-induced (250 ng/mL) human platelet aggregation results before and 15 minutes after administration of the BTK inhibitors to 6 healthy individuals are shown.

[9] = system: canine B cell lymphoma; experiment: veterinary clinical trial in companion dogs with B cell lymphoma; assay type: in vivo
Experimental: Enrollment has completed for both arms.
Intra-subject dose escalation was allowed. Six of the 11 dogs that initiated at 2.5 or 5 mg/kg once daily were escalated and completed the study with dosages of 10 mg/kg twice daily. Among all the dose cohorts, 8 dogs had shrinkage of target lesions >20%; the best tumor responses were between 45-49% reduction in the sum of target lesions in two dogs. […] CR were defined as disappearance of all evidence of disease per evaluator judgment, and absence of new lesions. Vali, et al., Vet. Comp. Oncol. 2010, 8, 28-37.
Of these, 7 dogs had shrinkage of target lesions >20%, providing evidence of biological activity for the combination; four of these dogs achieved a PR. […] The initial reductions in the sum of target lesions continued to deepen during the course of therapy in 7 of the 10 dogs.

[10] = molecular target: CYP3A4 (Homo sapiens, UniProt P08684); experiment: loss of parent drug as catalyzed by CYPs; assay type: in vitro ADME; conditions: in vitro loss of parent drug
Chain of CYP3A4 (P08684 whole entry): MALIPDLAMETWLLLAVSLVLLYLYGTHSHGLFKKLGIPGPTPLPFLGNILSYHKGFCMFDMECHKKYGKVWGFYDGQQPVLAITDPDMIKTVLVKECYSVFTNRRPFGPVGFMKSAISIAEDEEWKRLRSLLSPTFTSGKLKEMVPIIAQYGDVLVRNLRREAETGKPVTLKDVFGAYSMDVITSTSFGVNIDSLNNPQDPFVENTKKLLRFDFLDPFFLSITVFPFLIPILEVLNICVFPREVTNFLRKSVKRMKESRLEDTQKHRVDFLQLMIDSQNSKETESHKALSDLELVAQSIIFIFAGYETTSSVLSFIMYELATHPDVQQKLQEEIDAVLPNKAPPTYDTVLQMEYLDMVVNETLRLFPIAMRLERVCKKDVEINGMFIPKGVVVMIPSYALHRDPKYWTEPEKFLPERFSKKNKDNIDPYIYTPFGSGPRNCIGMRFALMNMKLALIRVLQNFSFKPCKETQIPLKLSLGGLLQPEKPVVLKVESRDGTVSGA

[11] = system: hepatocytes; experiment: in vitro metabolism in hepatocytes with 14C-labeled drug; assay type: in vitro ADME, mouse, rat, dog, rabbit, monkey, and human
[12] = glutathione binding and depletion in vitro; assay type: in vitro ADME
[13] = system: CYP enzymes; experiment: nonclinical CYP interaction studies; assay type: in vitro ADME
[14] = system: CXCL12; experiment: plasma chemokines in treated CLL patients; assay type: in vivo, human
[15] = system: CCL2; experiment: plasma chemokines in treated CLL patients; assay type: in vivo, human
[16] = molecular target: T1, BTK (Mus musculus, UniProt P35991); experiment: molecular probe assay, BTK occupancy in MDSCs from tumor bearing PDA mice; assay type: in vivo; conditions: 15 mg/kg BID, Day 8, 4 hours post dose, granulocytic and monocytic MDSC (N=5)
T1 construct: MDSCs were purified from tumor bearing PDA mice; from tissue; host or cells: granulocytic and monocytic MDSCs purified from tumour-bearing PDA mice
T1 sequence (P35991 whole entry): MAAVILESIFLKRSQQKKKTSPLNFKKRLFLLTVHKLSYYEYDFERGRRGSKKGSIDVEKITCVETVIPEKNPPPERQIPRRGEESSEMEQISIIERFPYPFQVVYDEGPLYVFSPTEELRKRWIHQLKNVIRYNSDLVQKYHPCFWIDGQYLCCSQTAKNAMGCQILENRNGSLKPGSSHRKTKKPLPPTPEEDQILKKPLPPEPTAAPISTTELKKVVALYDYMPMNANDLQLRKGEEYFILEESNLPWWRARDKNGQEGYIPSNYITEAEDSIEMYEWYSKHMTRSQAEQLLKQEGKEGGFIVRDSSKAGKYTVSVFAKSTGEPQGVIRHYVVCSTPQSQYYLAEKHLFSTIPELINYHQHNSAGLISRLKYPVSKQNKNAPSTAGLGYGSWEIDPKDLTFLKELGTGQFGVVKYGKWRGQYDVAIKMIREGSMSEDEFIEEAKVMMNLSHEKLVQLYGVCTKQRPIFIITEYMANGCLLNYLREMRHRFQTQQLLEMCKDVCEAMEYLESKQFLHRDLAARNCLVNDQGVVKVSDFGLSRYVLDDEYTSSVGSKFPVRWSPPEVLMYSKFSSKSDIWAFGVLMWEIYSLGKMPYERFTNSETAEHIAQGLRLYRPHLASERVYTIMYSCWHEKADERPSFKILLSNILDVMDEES
From the text: A molecular probe assay was used to calculate the percent irreversible occupancy of total BTK.

[17] = system: NSCLC (KrasLA2) tumors; experiment: genetic tumor model of NSCLC (KrasLA2); assay type: in vivo, mice; conditions: 15 mg/kg
From the text: The model is designed to have sporadic expression in single cells of G12D mutant Kras off its own promoter triggered by spontaneous intrachromosomal recombination. Johnson, et al. Nature 2001, 410, 1111-16. While the mutant Kras protein is expressed in a few cells in all tissues, tumor development is seen only in the lung at high penetrance.

[18] = preliminary brain PK experiments, oral gavage; assay type: in vivo, Sprague-Dawley rats; conditions: 5 or 30 mg/kg/day oral
From the text: Two vehicle treated rats were sacrificed on each sampling day for comparison.

[19] = preliminary evaluations of metabolism in plasma, bile, and urine; assay type: in vivo; conditions: rats, dogs, and monkeys
[20] = system: CLL; conditions: human, in vivo
From the text: (§1) This study is a multicenter, open-label, nonrandomized, sequential group, dose escalation study. The following dose cohorts will be evaluated:
(§2) Each cohort will be enrolled sequentially with 6 subjects per cohort. If ≤1 dose-limiting toxicity (DLT) is observed in the cohort during Cycle 1, escalation to the next cohort will proceed. Subjects may be enrolled in the next cohort if 4 of the 6 subjects enrolled in the cohort completed Cycle 1 without experiencing a DLT, while the remaining 2 subjects are completing evaluation. If ≥2 DLTs are observed during Cycle 1, dosing at that dose and higher will be suspended and the MTD will be established as the previous cohort. […] Dose escalation will end when either the MTD is achieved or at 3 dose levels above full BTK occupancy, whichever occurs first. […] Should escalation to Cohort 6 be necessary, the dose will be determined based on the aggregate data from Cohorts 1 to 5, which includes safety, efficacy, and PK/PD results. The dose for Cohort 6 will not exceed 900 mg/day.
(§3) Dose-limiting toxicity is defined as any of the following events (if not related to disease progression): (1) any Grade ≥3 non-hematologic toxicity (except alopecia) persisting despite receipt of a single course of standard outpatient symptomatic therapy (e.g., Grade 3 diarrhea that responds to a single, therapeutic dose of Imodium® would not be considered a DLT); (2) grade ≥3 prolongation of the corrected QT interval (QTc), as determined by a central ECG laboratory overread; (3) grade 4 neutropenia (absolute neutrophil count [ANC]<500/μL) lasting >7 days after discontinuation of therapy without growth factors or lasting >5 days after discontinuation of therapy while on growth factors (i.e., Grade 4 neutropenia not lasting as long as specified will not be considered a DLT), (4) grade 4 thrombocytopenia (platelet count <20,000/μL) lasting >7 days after discontinuation of therapy or requiring transfusion (i.e., Grade 4 thrombocytopenia not lasting as long as specified will not be considered a DLT), and (5) dosing delay due to toxicity for >7 consecutive days.
(§4) The study scheme is a sequential cohort escalation. Each cohort consists of six subjects. The sample size of the study is 24 to 36 subjects, depending on dose escalation into subsequent cohorts. […] The dose level for Cohort 6 will be determined based on the safety and efficacy of Cohorts 1 to 5, and will not exceed 900 mg/day. Escalation will end with either the MTD cohort or three levels above full BTK occupancy, whichever is observed first. An additional arm of the study will explore 100 mg BID dosing.
(§5) The route of administration is oral (per os, or PO). The dose regimen is once daily or twice daily, as defined by the cohort, on an empty stomach (defined as no food 2 hours before and 30 minutes after dosing).

[21] = study of respiratory function; conditions: rats, doses through 300 mg/kg
[22] = system: 80 known pharmacologic targets such as G-protein-coupled receptors, nuclear receptors, proteases, and ion channels; experiment: binding assays with 80 known pharmacologic targets; conditions: screened at 10 μM
[23] = molecular target: BTK (Homo sapiens, UniProt Q06187); experiment: BTK target occupancy in relapsed/refractory CLL patients; conditions: at lower dosage versus ibrutinib, FIG. 131
Chain of BTK (Homo sapiens, UniProt Q06187) (Q06187 whole entry): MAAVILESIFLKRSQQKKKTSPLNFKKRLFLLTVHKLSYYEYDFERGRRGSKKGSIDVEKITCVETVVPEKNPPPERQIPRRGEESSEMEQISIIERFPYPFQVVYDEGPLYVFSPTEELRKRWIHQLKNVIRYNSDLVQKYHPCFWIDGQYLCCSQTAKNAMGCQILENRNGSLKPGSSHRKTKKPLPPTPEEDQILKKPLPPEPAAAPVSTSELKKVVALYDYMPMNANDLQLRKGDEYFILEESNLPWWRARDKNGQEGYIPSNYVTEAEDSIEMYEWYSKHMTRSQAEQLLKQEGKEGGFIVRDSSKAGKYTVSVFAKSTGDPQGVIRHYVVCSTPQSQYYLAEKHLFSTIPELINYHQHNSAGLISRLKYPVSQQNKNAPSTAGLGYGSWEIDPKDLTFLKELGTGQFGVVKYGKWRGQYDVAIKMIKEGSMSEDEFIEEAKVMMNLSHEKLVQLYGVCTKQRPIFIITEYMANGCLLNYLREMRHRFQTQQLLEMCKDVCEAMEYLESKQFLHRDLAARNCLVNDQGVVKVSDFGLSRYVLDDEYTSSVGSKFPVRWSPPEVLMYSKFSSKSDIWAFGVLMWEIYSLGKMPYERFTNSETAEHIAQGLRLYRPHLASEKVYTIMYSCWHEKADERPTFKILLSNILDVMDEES

[24] = functional observation battery (GLP safety pharmacology); conditions: rats, doses through 300 mg/kg
[25] = molecular target: EGFR (Homo sapiens, UniProt P00533); experiment: EGF-induced EGFR phosphorylation in A431 cells (phosphoflow); conditions: 10 μM, A431 human epidermoid cancer cell line
Chain of EGFR (P00533 25-1210): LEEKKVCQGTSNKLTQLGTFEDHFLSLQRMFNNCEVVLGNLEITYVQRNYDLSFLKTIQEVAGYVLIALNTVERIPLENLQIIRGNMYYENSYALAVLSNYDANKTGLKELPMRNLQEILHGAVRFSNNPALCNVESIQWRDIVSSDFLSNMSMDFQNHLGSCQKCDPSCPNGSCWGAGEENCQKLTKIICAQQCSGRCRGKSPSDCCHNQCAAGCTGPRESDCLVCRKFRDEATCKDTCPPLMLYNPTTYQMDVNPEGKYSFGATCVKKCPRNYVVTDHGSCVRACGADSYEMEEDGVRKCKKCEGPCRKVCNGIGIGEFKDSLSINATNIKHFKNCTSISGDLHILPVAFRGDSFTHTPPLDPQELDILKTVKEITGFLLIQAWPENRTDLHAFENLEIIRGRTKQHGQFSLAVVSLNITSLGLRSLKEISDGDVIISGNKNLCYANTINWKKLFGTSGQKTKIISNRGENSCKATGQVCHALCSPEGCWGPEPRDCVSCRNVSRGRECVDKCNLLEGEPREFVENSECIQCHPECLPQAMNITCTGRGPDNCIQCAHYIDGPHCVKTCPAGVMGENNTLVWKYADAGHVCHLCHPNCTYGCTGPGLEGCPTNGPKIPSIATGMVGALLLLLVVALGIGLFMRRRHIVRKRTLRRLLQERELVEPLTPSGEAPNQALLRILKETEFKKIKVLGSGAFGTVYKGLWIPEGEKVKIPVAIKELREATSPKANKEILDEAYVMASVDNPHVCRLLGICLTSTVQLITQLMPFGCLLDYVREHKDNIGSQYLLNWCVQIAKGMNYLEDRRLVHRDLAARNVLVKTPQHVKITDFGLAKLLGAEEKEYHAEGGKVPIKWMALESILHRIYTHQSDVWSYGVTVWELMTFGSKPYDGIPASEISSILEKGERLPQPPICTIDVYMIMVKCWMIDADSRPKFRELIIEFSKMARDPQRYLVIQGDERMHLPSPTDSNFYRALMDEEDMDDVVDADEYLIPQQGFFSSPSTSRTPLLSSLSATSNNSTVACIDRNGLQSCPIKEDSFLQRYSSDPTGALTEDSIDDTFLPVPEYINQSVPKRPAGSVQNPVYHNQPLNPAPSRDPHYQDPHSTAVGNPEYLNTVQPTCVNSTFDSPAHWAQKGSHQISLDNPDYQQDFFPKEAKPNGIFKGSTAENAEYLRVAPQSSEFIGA

[26] = system: CLL; experiment: clinical study of Formula (XVIII) in relapsed/refractory CLL
From the text: as §1, §2, §3, §4, §5

[27] = cardiovascular function study in awake telemeterized beagle dogs; conditions: male beagle dogs, single doses through 30 mg/kg
[28] = system: GPVI platelet aggregation; experiment: GPVI platelet aggregation studies; assay type: cell-based; conditions: FIG. 122
[29] = within the tested dose range; cited from earlier work

SMILES: C=CC(=O)Nc1cccc(Nc2nc(Nc3ccc(OCCOC)cc3)ncc2F)c1 [CC-292]
- EC50 [1]: 121 nM

SMILES: CC#CC(=O)N1CCC[C@H]1c1nc(-c2ccc(C(=O)Nc3ccccn3)cc2)c2c(N)nccn12 [Formula (XVIII), (S)-4-(8-amino-3-(1-(but-2-ynoyl)pyrrolidin-2-yl)imidazo[1,5-a]pyrazin-1-yl)-N-(pyridin-2-yl)benzamide]
- in vivo potency, inhibition of expression of activation markers CD69 and CD86 [2]: more potent at inhibiting expression of activation makers than ibrutinib
- absolute lymphocyte count (ALC) ([3]; relative to ibrutinib (Byrd et al. 2013)): much smaller relative increase and much faster decrease
- sum of the product of greatest diameters (SPD) ([3]; versus ibrutinib): decreases more rapidly
- apoptosis [4]: increased apoptosis
- CXCL12 levels [5]: decrease
- CCL2 levels [6]: decrease
- effect on human platelet-mediated thrombus formation [7]: no significant effect
- inhibition of GPVI platelet aggregation [8]: does not
- complete responses (CR) ([9]; Arm 1: 21 dogs, Arm 2: 10 dogs): not observed
- dogs with shrinkage of target lesions >20% ([9]; Arm 1: 21 dogs, Arm 2: 10 dogs): 8 dogs
- Median time to best response ([9]; dog, in vivo): 7 days
- best tumor responses, reduction in the sum of target lesions ([9]; dog, in vivo): 45-49%
- CYP responsible for metabolism [10]: metabolized by CYP3A4
- unique human metabolite ([11]; hepatocytes): No unique human metabolite
- metabolites in hepatocytes ([11]; mouse, rat, dog, rabbit, monkey, and human hepatocytes): two mono-oxidized metabolites and a glutathione conjugate
- glutathione binding and depletion [12]: binds to glutathione but does not deplete glutathione
- potential for clinical drug-drug interactions via CYP enzymes [13]: very unlikely to cause clinical drug-drug interactions
- plasma CXCL12 levels [14]: significant decrease
- plasma CCL2 levels [15]: significant decrease
- irreversible occupancy of total BTK in MDSCs [16]: Complete BTK occupancy
- number of tumors [17]: fewer overall tumors
- tumor volumes versus vehicle [17]: significant decrease
- EC50 ([1]; B-cell): 8.2 nM
- levels in the brain and CSF samples [18]: low but detectable levels
- metabolic processes in plasma, bile, and urine [19]: oxidation, glutathione binding, and hydrolysis
- MTD [20]: not reached
- respiratory function [21]: no treatment-related adverse effects
- activity in binding assays with 80 known pharmacologic targets [22]: significant activity only against the A3 adenosine receptor
- BTK target occupancy [23]: improved BTK target occupancy
- neurobehavioral effects or body temperature, functional observation battery [24]: no adverse effects
- inhibition of in vitro EGFR phosphorylation [25]: no inhibition
- PD ([26]; 100 mg BID (N = 3)): 0 (0) n (%)
- PR ([26]; 100 mg BID (N = 3)): 3 (100) n (%)
- PR + L ([26]; 100 mg BID (N = 3)): 0 (0) n (%)
- PD ([26]; 100 mg QD (N = 8)): 0 (0) n (%)
- PR ([26]; 100 mg QD (N = 8)): 7 (88) n (%)
- PR + L ([26]; 100 mg QD (N = 8)): 0 (0) n (%)
- PD ([26]; 175 mg QD (N = 8)): 0 (0) n (%)
- PR ([26]; 175 mg QD (N = 8)): 5 (63) n (%)
- PR + L ([26]; 175 mg QD (N = 8)): 3 (37) n (%)
- PD ([26]; 250 mg QD (N = 7)): 0 (0) n (%)
- PR ([26]; 250 mg QD (N = 7)): 5 (71) n (%)
- PR + L ([26]; 250 mg QD (N = 7)): 2 (29) n (%)
- PD ([26]; 400 mg QD (N = 5)): 0 (0) n (%)
- PR ([26]; 400 mg QD (N = 5)): 2 (40) n (%)
- PR + L ([26]; 400 mg QD (N = 5)): 2 (40) n (%)
- PD ([26]; All Cohorts (N = 31)): 0 (0) n (%)
- PR ([26]; All Cohorts (N = 31)): 22 (71) n (%)
- PR + L ([26]; All Cohorts (N = 31)): 7 (23) n (%)
- treatment time at which median % change in SPD achieved the same status ([26]; CLL patients, present study): 7 months
- Headache (treatment-related adverse event) ([26]; Grade 1/2, All (N = 44)): 7 (16) n (%)
- Diarrhea (treatment-related adverse event) ([26]; Grade 1, All (N = 44)): 4 (9) n (%)
- Increased tendency to bruise (treatment-related adverse event) ([26]; Grade 1, All (N = 44)): 6 (14) n (%)
- Petechiae (treatment-related adverse event) ([26]; Grade 1, All (N = 44)): 3 (7) n (%)
- grade of AEs observed ([26]; human, in vivo): only grade 1 AEs
- lymphocytosis ([26]; human, in vivo): A lack of lymphocytosis
- dose-limiting toxicities (DLTs) ([26]; relapsed/refractory CLL): No DLTs
- treatment-related serious adverse events (SAEs) ([26]; relapsed/refractory CLL): No treatment-related serious adverse events
- progression in patients with the 17p deletion ([26]; to date): no 17p patients have progressed
- body temperature, cardiovascular, or ECG (including QT interval) parameters [27]: no meaningful changes

SMILES: C=CC(=O)N1CCC[C@@H](n2nc(-c3ccc(Oc4ccccc4)cc3)c3c(N)ncnc32)C1 [Formula (XX-A), reference compound]
- IC50 ([28]; Platelet): 130 nM

SMILES: CC#CC(=O)N1CCC[C@H]1c1nc(-c2ccc(C(=O)Nc3ccccn3)cc2)c2c(N)nccn12 [Formula XVIII]
- IC50 [28]: 1150 nM

SMILES: C=CC(=O)Nc1cccc(Nc2nc(Nc3ccc(OCCOC)cc3)ncc2F)c1 [Formula XXVII (CC-292), N-(3-((5-fluoro-2-((4-(2-methoxyethoxy)phenyl)amino)pyrimidin-4-yl)amino)phenyl)acrylamide, reference compound]
- effect on human platelet-mediated thrombus formation [7]: effect similar to Formula (XX-A) (ibrutinib)

SMILES: C=CC(=O)N1CCC[C@@H](n2nc(-c3ccc(Oc4ccccc4)cc3)c3c(N)ncnc32)C1 [ibrutinib]
- EC50 ([1]; B-cell): 6.1 nM
- maximum tolerated dose (MTD) [29]: No maximum tolerated dose

Reference: patent US11654143B2, “Therapeutic combinations of a BTK inhibitor, a PI3K inhibitor, a JAK-2 inhibitor, and/or a BCL-2 inhibitor” (Acerta Pharma B.V., priority 2014, dated 2023)
